Here are results for 2 molecules from patent US20240180888A1, “C5AR1 INHIBITORS FOR TREATING […] REACTIONS TO TAXANES” (Dompe' Farmaceutici SPA, priority 2021, published 2024).

Experiment [1] deals with RAW 264.7 mouse macrophages. Kind of experiment: Proteome profiler cytokine release assay in RAW 264.7 macrophages. The experiment is classed as cell-based. The settings on record: 10 nM, 24 h; for proteome profile of cytokines released: murine. How it is done: RAW 264.7 (ATTC TIB-71) mouse macrophages were cultured following manufacturer's instructions using DMEM medium (Euroclone, MI, Italy) supplemented with 10% FBS (non-heat inactivated) (ATCC, USA) at 37° C., in a humidified 95% air-5% CO2 atmosphere and then were seeded at 1*10^4 cells/cm^2.
(§1) After 24 hours, cells were treated with C5a (diluted in medium) (10 nM, R&D, USA), Paclitaxel (diluted in medium) (10 nM, Sigma, USA) in the absence and in the presence of the C5a inhibitor DF3966A (10 μM), and anti C5aR Ab (BioLegend, CA, USA; 50 nM) or Avacopan (10 μM) for 24 hours, then the media was replaced with culture media (5 ml) for 24 h and then collected.
(§2) Conditioned media were centrifugated to remove particulates and assayed immediately. […] The reagents were prepared following manufacturer's protocols (R&D, USA). Briefly, the membranes were incubated with Array Buffer 6 for 1 hour on a rocking platform shaker. The samples were prepared by adding up to 1 ml of Array Buffer 4 in two separated tubes and then 15 microl of reconstituted mouse cytokine detection antibody cocktail (>40 mouse cytokines) to each prepared sample and incubated 1 hour. Then, the Array Buffer 6 was aspirated and replaced with the sample/antibody mixtures and incubated at 4° C. overnight. The following day, membranes were washed 3 times and Streptavidin-HRP (1:2000) was incubated for 30 minutes at room temperature on a rocking platform shaker. The membranes were washed again, and 1 ml of prepared Chemi Reagent mix was placed onto each membrane. Multiple exposure times were acquired using UVITEC digital analyzer (Alliance, Cambridge, UK).
(§3) The positive signals seen in the developed membranes can be identified by placing the transparency overlay template on the array image and aligning it with pairs of reference spots in the three corners of each array (see FIG. 10). […] Pixel densities (average signals of pair of duplicates which represent each cytokine) were analyzed by ImageJ and the average background was subtracted from each spot.
(§4) In details, the profiling of cytokines released (>40 cytokines) from RAW 264.7 and human macrophages challenged with paclitaxel (Sigma-Aldrich; 10 nM) or C5a (R&D Systems, Inc. MN, USA; 10 nM) for 24 h using a proteome profiler assay. […] The experimental assay is explained in example 4.
(§5) For the human macrophages, human XL Cytokine Array kit #Ary022B was used, while for murine macrophages mouse cytokine Array Panel A #Ary006 was used (R&D systems, USA).

A further experiment deals with T1, complement component 5a (Homo sapiens, UniProt P01031).
T1 sequence (P01031 678-751 limits assumed): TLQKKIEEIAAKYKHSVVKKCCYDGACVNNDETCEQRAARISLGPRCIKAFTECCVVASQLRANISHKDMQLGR
Briefly: BIAcore SPR binding to C5a immobilised on sensorchip CM5. Particulars: 300 microM in Running Buffer. The source says: (§6) BIAcore technology was used to analyze the interaction between Paclitaxel and complement component 5a receptor 1 (C5aR1) (Example 1), complement component 5a receptor 2 (C5AR2) (Example 2) or complement component 5a (Example 3).
(§7) The BIAcore systems exploit the phenomenon of Surface Plasmon Resonance (SPR) to monitor interactions between molecules in real time. Briefly, SPR phenomenon occurs in thin conducting films at an interface between media of different refractive index. In BIAcore systems, the media are the glass of the sensorchip and the sample solution, and the conducting film is a thin layer of gold on the sensorchip surface. BIAcore monitors the interaction between two molecules, one attached to the sensor surface, called ligand, and the other one free in solution, and called analyte.
C5a was immobilized on a sensorchip (#29149604, Cytiva). In details, 20 microg/ml of recombinant protein C5a was diluted in 10 mM acetate buffer at pH 4.5 and injected over the surface of the sensorchip. Activation and deactivation of sensorchip were performed as described in Example 1a).
Paclitaxel was injected on the C5A surface of the sensorchip prepared in Example 2a) at a concentration of 300 microM in Running Buffer.RU can be detected by BIAcore.
(In SPR one partner is held on a chip, and binding of the other changes the refractive index at the surface.)

Experiment [2] has as its system human (THP-1) macrophages. Briefly: Proteome profiler cytokine release assay in human macrophages. It is filed as cell-based. Particulars: human; 10 nM, 24 h. How it is done: as §1, §2, §3, §4, §5
Experiment [3] has as its target T2, complement component 5a receptor 2 (C5AR2) (Homo sapiens, UniProt Q9P296).
T2 construct: purchased CUSABIO CSB-CF868390HU
Kind of experiment: BIAcore SPR binding to C5aR2 immobilised on sensorchip CM5 via His-tag.
Description: as §6, §7
A policlonal anti-His antibody (ab137839, Abcam) was immobilized on a sensorchip CM5 (#29149604, Cytiva). In details, the antibody was diluted at a concentration of 50 μg/ml in 10 mM acetate buffer at pH 4.0, and injected over the surface of the sensorchip. Activation and deactivation of sensorchip were performed as described in Example 1a). […] Once the antibody was immobilized, the receptor was captured in an oriented way on the surface of the sensorchip. In particular, C5AR2-His (CSB-CF868390HU, CUSABIO) at a concentration of 100 μg/ml was injected onto the sensorchip with a flow rate of 5 microl/min in Running Buffer.
5 μM C5a (A144, Complement Technologies) was injected on C5AR2 surface of the sensorchip prepared in Example 2a).
Paclitaxel was injected on the C5aR2 surface of the sensorchip prepared in Example 2a) at different concentrations (10, 100 and 200 microM) in Running Buffer, and the amount of obtained RU was evaluated.

T2 sequence (Q9P296 whole entry): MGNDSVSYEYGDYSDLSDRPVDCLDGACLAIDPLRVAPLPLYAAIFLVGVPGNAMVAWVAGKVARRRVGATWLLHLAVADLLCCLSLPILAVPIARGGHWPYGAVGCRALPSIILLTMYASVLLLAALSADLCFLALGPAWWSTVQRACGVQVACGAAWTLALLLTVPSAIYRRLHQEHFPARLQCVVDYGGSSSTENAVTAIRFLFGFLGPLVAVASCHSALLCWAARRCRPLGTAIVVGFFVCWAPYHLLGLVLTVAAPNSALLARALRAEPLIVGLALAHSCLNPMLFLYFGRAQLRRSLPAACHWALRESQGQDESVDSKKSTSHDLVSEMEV

Take `CC(=O)O[C@H]1C(=O)[C@@]2(C)[C@H]([C@H](OC(=O)c3ccccc3)[C@]3(O)C[C@H](OC(=O)[C@H](O)[C@@H](NC(=O)c4ccccc4)c4ccccc4)C(C)=C1C3(C)C)[C@]1(OC(C)=O)CO[C@@H]1C[C@@H]2O` [Paclitaxel]: in experiment [1], the “levels of MCP-1, MIP-1α, MIP-1β, MIP-2 and ID Ra compared to the control group” value is reported as “significantly increased”; the “proteome profile of cytokines released” value was “resembled that of typical anaphylaxis”. Besides, the “binding to immobilised C5a” value on complement component 5a was “not able to bind”. Moreover, the “proteome profile of cytokines released” value in experiment [2] was “resembled that of typical anaphylaxis”. The “binding to immobilised C5aR2” value in experiment [3] (10, 100 and 200 microM in Running Buffer) is listed as “not able to bind”. Further, the “binding to immobilised C5aR2 (legend of FIG. 8)” value in experiment [3] (from 4.06 μM to 37.5 μM) is “not able to bind”.

B1: C5a: anaphylatoxin, pro-inflammatory polypeptide, the natural ligand of the receptor C5aR1 (protein, UniProt P01031 678-751, looked up)
C5a anaphylatoxin: T1 sequence (P01031 678-751 limits assumed)
modifications: C5a anaphylatoxin
notes: anaphylatoxin, pro-inflammatory polypeptide, the natural ligand of the receptor C5aR1
Regarding B1, in experiment [1], the “levels of MCP-1, MIP-1α, MIP-1β, MIP-2 and ID Ra compared to the control group” value is “significantly increased”; the “proteome profile of cytokines released” value is “resembled that of typical anaphylaxis”. Further, the “proteome profile of cytokines released” value in experiment [2] was “resembled that of typical anaphylaxis”. Moreover, the “binding to immobilised C5aR2” value in experiment [3] (5 μM) was “is able to bind”.
